Experimental data taken from patent publication US10696685B2, “Polyketides, methods of use and preparation” (Universiteit Leiden, priority 2015, dated 2020).
Entries after “also recorded” stand apart in the source; their conditions may differ.

How the values were obtained:
Bacillus subtilis 168 = assay: Disk diffusion antimicrobial activity assay, Bacillus subtilis 168; type: cell-based; settings: paper disk, 25 μL of 2 μg/μL in chloroform (lugdunomycin: 10 μL of 1 μg/μL in methanol), 37° C., 18 h, FIG. 6 A
Description: (§1) Streptomyces sp. QL37 was isolated from soil in the Qinling mountains (P. R. China) soil as described previously (Zhu et al, 2014b). The previously undescribed strain was deposited to the collection of the Centraal Bureau voor Schimmelcultures (CBS) in Utrecht, The Netherlands. Streptomyces sp. QL37 was cultivated on Minimal Medium agar plates (MM) (Kieser et al., 2000) with 0.5% glycerol and 1% mannitol (w/v) as the carbon sources, on R5 agar supplemented with 0.8% peptone and 1% mannitol (w/v), or to prepare spore suspensions on SFM agar plates (Soy flour man nitol; (Kieser et al., 2000)). Square agar plates (12 cm×12 cm) were inoculated with 1×10^7 spores from a fresh spore suspension. As indicator strains for the antibacterial assays we used B. subtilis 168 and E. coli JM109 (Sambrook et al., 1989).
(§2) Antimicrobial activity was determined using a disk diffusion assay. For this, compounds were dissolved in chloroform to a concentration of (2 μg/μL) and of this solution, 25 μL was applied on a paper disk (GE Healthcare Bio-Sciences, Pittsburgh), except for lugdunomycin, for which 10 μL of a 1 μg/μL solution in methanol was used. […] After incubation at 37° C. for 18 h, growth inhibition zones (in mm) were recorded as antimicrobial activity.

Escherichia coli JM109 = assay: Disk diffusion antimicrobial activity assay, Escherichia coli JM109; type: cell-based; settings: paper disk, 25 μL of 2 μg/μL in chloroform (lugdunomycin: 10 μL of 1 μg/μL in methanol); 37° C., 18 h; FIG. 6 B, D
Description: as §1, §2

## COc1cccc2c1[C@@H](O)[C@]13C[C@@H](O)C[C@]1(C(=O)NC3=O)[C@]21Oc2cc(C)cc3ccc(O)c1c23 [Lugdunomycin (1), lugdunomycin]
Bacillus subtilis 168
  antimicrobial activity (growth inhibition) against Gram-positive Bacillus subtilis: showed inhibition efficacy; also recorded: showed antimicrobial activity
Escherichia coli JM109
  antimicrobial activity (growth inhibition) against Gram-negative Escherichia coli JM109: not against
